Test results from US5504190A, “Equimolar multiple oligomer mixtures, especially oligopeptide mixtures” (priority 1994, dated 1996).
Values after ≈ are worked out from the molar mass of the structure shown.

Tested on: Escherichia coli (ATCC 25922)
Experiment: antimicrobial assay, growth inhibition of E. coli (OD 620 nm)
Type: cell-based
Settings: Tables 1 and 2
Method: (§1) Escherichia coli (ATCC 25922) was used as Gram-negative (-) and Staphylococcus aureus (ATCC 29213) as Gram-positive (+) bacteria. Bacteria were grown overnight (about 18 hours) at 37° C. in Mueller-Hinton (MH) broth. This culture was reinoculated and incubated at 37° C. to reach the exponential phase of bacteria growth; i.e., a final bacterial suspension containing about 10^5 to 5×10^5 colony-forming units (CFU)/ml. The concentration of cells was established by plating 100 μl of different dilutions of the culture solution (e.g., 10^-2, 10^-3 and 10^-4) onto solid agar plates. Following an overnight (about 18 hours) incubation at 37° C., the CFU thus formed were counted on each agar plate.
(§2) 96-Well tissue culture plates were utilized, with eight wells per plate containing only medium as control blanks, whereas eight other wells contained medium plus cells as a positive growth control. These controls were used to detect possible medium contamination and to provide a measure of uninhibited growth of the microorganisms.
(§3) For initial screening studies, oligopeptide sets were added to the bacterial suspension to reach a final concentration of 1 mg/ml.
(§4) The plates were incubated overnight (about 18 hours) at 37° C., and the optical density (OD) determined at 620 nm after different times of incubation.

Compound | IC-50 [µg/mL] | MIC [µg/mL]
Ac-FRWLLH-NH2 [FRWLLH] | 17 | 20 to 40
Ac-FRWLLV-NH2 [FRWLLV] | 24 | 40 to 80
Ac-FRWWHF-NH2 [FRWWHF] | 30 | 31 to 62
Ac-FRWWHH-NH2 [FRWWHH] | 31 | 34 to 62
Ac-FRWWHK-NH2 [FRWWHK] | 15 | 16 to 32
Ac-FRWWHL-NH2 [FRWWHL] | 31 | 62 to 125
Ac-FRWWHR-NH2 [FRWWHR] | 13 | 16 to 32
Ac-FRWWHW-NH2 [FRWWHW] | 27 | 62 to 125
Ac-RRWWMA-NH2 [RRWWMA] | 18 | 20 to 32
Ac-RRWWMC-NH2 [RRWWMC] | 12 | 31 to 62
Ac-RRWWMF-NH2 [RRWWMF] | 18 | 20 to 32
Ac-RRWWMG-NH2 [RRWWMG] | 9 | 10 to 16
Ac-RRWWMH-NH2 [RRWWMH] | 24 | 31 to 62
Ac-RRWWMI-NH2 [RRWWMI] | 12 | 16 to 32
Ac-RRWWMK-NH2 [RRWWMK] | 14 | 16 to 32
Ac-RRWWML-NH2 [RRWWML] | 15 | 16 to 32
Ac-RRWWMM-NH2 [RRWWMM] | 18 | 20 to 32
Ac-RRWWMN-NH2 [RRWWMN] | 25 | 31 to 62
Ac-RRWWMP-NH2 [RRWWMP] | 26 | 31 to 62
Ac-RRWWMR-NH2 [RRWWMR] | 9 | 10 to 16
Ac-RRWWMS-NH2 [RRWWMS] | 17 | 20 to 32
Ac-RRWWMT-NH2 [RRWWMT] | 18 | 20 to 32
Ac-RRWWMV-NH2 [RRWWMV] | 15 | 16 to 32
Ac-RRWWMW-NH2 [RRWWMW] | 15 | 16 to 32
Ac-RRWWMY-NH2 [RRWWMY] | 15 | 16 to 32

Tested on: Staphylococcus aureus (ATCC 29213)
Experiment: microbe, parasite or virus in culture
Settings: 7-mer studies, Tables 5 and 6 and parent 6-mer
Method: as §1, §2, §3, §4

Compound | IC-50 [µg/mL] | MIC [µg/mL]
Ac-CRRWWRF-NH2 [CRRWWRF] | 6.3 | 8 to 16
Ac-FRRWWRF-NH2 [FRRWWRF] | 5.9 | 8 to 16
Ac-LRRWWRF-NH2 [LRRWWRF] | 6.1 | 8 to 16
Ac-RRRWWRF-NH2 [RRRWWRF] | 8 | 8 to 16
Ac-RRWWRF-NH2 [RRWWRF, Ac-Arg-Arg-Trp-Trp-Arg-PheNH2] | 8.7 | –
Ac-RRWWRFC-NH2 [RRWWRFC] | 6.2 | 8 to 16
Ac-RRWWRFI-NH2 [RRWWRFI] | 6.9 | 8 to 16
Ac-RRWWRFL-NH2 [RRWWRFL] | 5.9 | 8 to 16
Ac-RRWWRFR-NH2 [RRWWRFR] | 7.9 | 8 to 16
Ac-RRWWRFV-NH2 [RRWWRFV] | 7.9 | 8 to 16
Ac-RRWWRFY-NH2 [RRWWRFY] | 7.6 | 8 to 16

Same assay, conditions: ATCC 29213, 18 h

Compound | MIC [µg/mL]
Ac-RRWWCR-NH2 [RRWWCR, Ac-Arg-Arg-Trp-Trp-Cys-Arg-NH2] | 3.906
Ac-RRWWRF-NH2 [RRWWRF, Ac-Arg-Arg-Trp-Trp-Arg-PheNH2] | 8 to 16

Same assay, conditions: Staphylococcus aureus, ATCC29213

Compound | MIC [µg/mL]
CC1(C)S[C@@H]2[C@H](NC(=O)[C@H](N)c3ccccc3)C(=O)N2[C@H]1C(=O)O [Ampicillin, reference compound] | 4 (≈ 11.4 µM)
CC[C@H]1OC(=O)[C@H](C)[C@@H](O[C@H]2C[C@@](C)(OC)[C@@H](O)[C@H](C)O2)[C@H](C)[C@@H](O[C@@H]2O[C@H](C)C[C@H](N(C)C)[C@H]2O)[C@](C)(O)C[C@@H](C)C(=O)[C@H](C)[C@@H](O)[C@]1(C)O [Erythromycin, reference compound] | 0.5 (≈ 0.681 µM)
CN(C)[C@@H]1C(O)=C(C(N)=O)C(=O)[C@@]2(O)C(O)=C3C(=O)c4c(O)cccc4[C@@](C)(O)[C@H]3C[C@@H]12 [Tetracycline, reference compound] | 0.5 (≈ 1.13 µM)

Same assay, conditions: Table 7, separate study

Compound | MIC [µg/mL]
CC1(C)S[C@@H]2[C@H](NC(=O)Cc3ccccc3)C(=O)N2[C@H]1C(=O)O [Penicillin G, reference compound] | 32 (≈ 95.7 µM)
Bacitracin A [reference compound] | 16
Gentamicin C [reference compound] | 0.5
Neomycin [reference compound] | 1

Same assay, conditions: Tables 3 and 4

Compound | IC-50 [µg/mL] | MIC [µg/mL]
Ac-FRWLLC-NH2 [FRWLLC] | 15 | 13 to 26
Ac-FRWLLL-NH2 [FRWLLL] | 18 | 16 to 31
Ac-FRWLLW-NH2 [FRWLLW] | 14 | 12 to 24
Ac-FRWWHF-NH2 [FRWWHF] | 16 | 31 to 62
Ac-FRWWHI-NH2 [FRWWHI] | 21 | 31 to 62
Ac-FRWWHK-NH2 [FRWWHK] | 30 | 31 to 62
Ac-FRWWHL-NH2 [FRWWHL] | 9.3 | 16 to 32
Ac-FRWWHR-NH2 [FRWWHR] | 18 | 16 to 32
Ac-FRWWHW-NH2 [FRWWHW] | 23 | 31 to 62
Ac-RRWWCS-NH2 [RRWWCS] | 5.9 | 7 to 14
Ac-RRWWCT-NH2 [RRWWCT] | 7.9 | 4.9 to 10
Ac-RRWWCV-NH2 [RRWWCV] | 4.9 | 3.8 to 7.7
Ac-RRWWRA-NH2 [RRWWRA] | 14 | 18 to 36
Ac-RRWWRC-NH2 [RRWWRC] | 8.2 | 10 to 19
Ac-RRWWRF-NH2 [RRWWRF, Ac-Arg-Arg-Trp-Trp-Arg-PheNH2] | 5.5 | 6 to 9
Ac-RRWWRI-NH2 [RRWWRI] | 12 | 12 to 23
Ac-RRWWRL-NH2 [RRWWRL] | 12 | 13 to 26

Tested on: Candida albicans ATCC 10231
Experiment: antifungal assay, growth inhibition of C. albicans (OD 620 nm)
Type: cell-based
Settings: Candida albicans, ATCC10231
Method: Antifungal studies were carried out Candida albicans ATCC 10231 as the target microbe. The yeast culture was spread onto YM agar plates and incubated at 30° C. for 48 hours. Three colonies of this culture (about 1 mm in diameter each) were then inoculated in 5 ml of 1 X PBS solution. The suspension was vortexed and diluted 10-fold in YM broth, for an approximate final concentration of 10^5 to 5×10^5 CFU (colony forming units)/ml.
Actual concentrations of yeast cultures were determined by plating 100 μl of different solutions of the culture solution (10^-3, 10^-4 and 10^-5) onto solid YM agar plates. After 48 hours of incubation at 30° C., CFU formed were counted from each plate.
The assays were carried out in 96-well tissue culture plates. Eight wells containing only medium of YM broth served as negative controls, whereas eight wells containing medium and yeast culture served as positive controls. These controls were used to detect possible medium contamination and to provide a measure of uninhibited growth of the yeast.
For screening studies, oligopeptide mixtures were added to the yeast suspension in duplicates to reach a final concentration of 1.5 mg/ml. […] The plates were incubated over a period of 48 hours at 30° C., and the optical density (OD) at 24 and 48 hours was determined at 620 nm.

Compound | MIC [µg/mL]
C[C@@H]1[C@H](O)[C@@H](C)/C=C/C=C/CC/C=C/C=C/C=C/C=C/[C@H](O[C@@H]2O[C@H](C)[C@@H](O)[C@H](N)[C@@H]2O)C[C@@H]2O[C@](O)(C[C@@H](O)[C@H](O)CC[C@@H](O)C[C@@H](O)C[C@@H](O)CC(=O)O[C@H]1C)C[C@H](O)[C@H]2C(=O)O [Nystatin, reference compound] | 2 to 4 (≈ 2.16 to 4.32 µM)

Same assay, conditions: Candida albicans, ATCC10231; Table 9

Compound | IC50 [µg/mL]
C[C@@H]1[C@H](O)[C@@H](C)/C=C/C=C/C=C/C=C/C=C/C=C/C=C/[C@H](O[C@@H]2O[C@H](C)[C@@H](O)[C@H](N)[C@@H]2O)C[C@@H]2O[C@](O)(C[C@@H](O)C[C@@H](O)[C@H](O)CC[C@@H](O)C[C@@H](O)CC(=O)O[C@H]1C)C[C@H](O)[C@H]2C(=O)O [Amphotericin B, reference compound] | 0.5 (≈ 0.541 µM)

Same assay, conditions: Candida albicans, ATCC10231; Table 9; read-out: MIC

Compound | MIC [µg/mL]
C[C@@H]1[C@H](O)[C@@H](C)/C=C/C=C/C=C/C=C/C=C/C=C/C=C/[C@H](O[C@@H]2O[C@H](C)[C@@H](O)[C@H](N)[C@@H]2O)C[C@@H]2O[C@](O)(C[C@@H](O)C[C@@H](O)[C@H](O)CC[C@@H](O)C[C@@H](O)CC(=O)O[C@H]1C)C[C@H](O)[C@H]2C(=O)O [Amphotericin B, reference compound] | 2 to 4 (≈ 2.16 to 4.33 µM)

Same assay, conditions: Table 9

Compound | IC-50 [µg/mL] | MIC [µg/mL]
Ac-KRRWWRF-NH2 [KRRWWRF] | 40 | 45 to 62
Ac-RRWWCVR-NH2 [RRWWCVR] | 50 | 50 to 62
Ac-RRWWRFK-NH2 [RRWWRFK] | 46 | 50 to 62
Ac-RRWWRFR-NH2 [RRWWRFR] | 45 | 50 to 62
Ac-RRWWRH-NH2 [RRWWRH] | 30.1 | 40 to 80
